Results published in paper PMC8589421, “Impact of Type II LRRK2 inhibitors on signaling and mitophagy” (Biochemical Journal, 2021).

Tested on: LRRK2 Ser935, Ser910, Ser955 and Ser973
Assay: LRRK2 biomarker site phosphorylation in primary human neutrophils
Assay type: cell-based
Conditions: up to 3 μM
Procedure: Cell extracts were mixed with a quarter of a volume of NuPage LDS Sample buffer 4× Invitrogen and heated at 95°C for 5 min. […] At the end of electrophoresis, proteins were electrophoretically transferred onto the nitrocellulose membrane (GE Healthcare, Amersham Protran Supported 0.45 µm NC) at 100 V for 90 min on ice in the transfer buffer (48 mM Tris–HCl and 39 mM glycine supplemented with 20% methanol). Transferred membrane was blocked with 5% (w/v) skim milk powder dissolved in TBS-T [20 mM Tris–HCl, pH 7.5, 150 mM NaCl and 0.1% (v/v) Tween 20] at room temperature for 1 h. The membrane was typically cropped into three pieces, namely the ‘top piece’ (from the top of the membrane to 75 kDa), the ‘middle piece’ (between 75 and 30 kDa) and the ‘bottom piece’ (from 30 kDa to the bottom of the membrane). All primary antibodies were used at 1 μg/ml final concentration and incubated in TBS-T containing 5% (by mass) bovine serum albumin with exception of α-tubulin and GAPDH antibodies that were diluted 1 : 5000 and 1 : 2000, respectively. The top piece was incubated with the indicated rabbit anti-LRRK2 phosphorylation site antibody multiplexed with mouse anti-LRRK2 C-terminus total antibody. […] Protein bands were acquired via near infrared fluorescent detection using the Odyssey CLx imaging system and quantified using the Image Studio software. […]

## Cc1ccc(C(=O)Nc2ccc(CN3CCN(C)CC3)c(C(F)(F)F)c2)cc1C#Cc1cnc2[nH]ncc2c1 [GZD-824]
  phosphorylation of Ser935, Ser910, Ser955 and Ser973: unaffected
